Here are results for 1 compound from patent US20160136108A1, “HYDROXYTYROSOL COMPOSITIONS FOR TREATMENT OF CARTILAGE INJURIES IN JOINTS” (DSM IP ASSETS B.V., priority 2007, published 2016).

Molecules are shown by their SMILES.

What all share (assay type): cell-based
One assay deals with human SOX-6. In words: Anabolic gene expression by quantitative real-time PCR in normal human primary chondrocytes: SOX-6. To be noted: normal human primary chondrocytes (HNAC-kn); 4 hours. The protocol: (§1) […] These primary chondrocytes were passaged in vitro not more than 4 times, before being used for experiments. Cells were cultured in chondrocyte differentiation medium (Cambrex, #CC-3225) without or with substances for 4 hours. Total RNA was extracted from cultured cells and reverse-transcribed as described by Richard et al. Mol. Nutr. Food Res. 49, 431-442, 2005. Expression levels of distinct genes were determined by quantitative real-time PCR as detailed in Richard et al. Mol. Nutr. Food Res. 49, 431-442, 2005.

A further assay relates to human aggrecan. Nature of the assay: Anabolic gene expression by quantitative real-time PCR in normal human primary chondrocytes: aggrecan. The method, then: as §1
Another assay relates to human SOX-5. In words: Anabolic gene expression by quantitative real-time PCR in normal human primary chondrocytes: SOX-5. The conditions noted are these: normal human primary chondrocytes (HNAC-kn); 4 hours. The method, then: as §1
In the next assay the test system is human COL2A1. Nature of the assay: Anabolic gene expression by quantitative real-time PCR in normal human primary chondrocytes: COL2A1. The method, then:
as §1

The next assay concerns Human IL-R antagonist. In words: Anti-catabolic gene expression by quantitative real-time PCR in normal human primary chondrocytes: IL-R antagonist. To be noted: normal human primary chondrocytes (HNAC-kn); 4 hours. The method, then:
as §1

[1] abbreviates: 12.5 microM OH-Tyrosol, normal human primary chondrocytes (HNAC-kn), 4 hours.
Where [2] appears, read: in words, normal human primary chondrocytes.

As to `OCCc1ccc(O)c(O)c1` [OH-Tyrosol, 4-(2-hydroxylethyl)-1,2-benzenediol], the “level of gene expression, human SOX-6” value in the assay on human SOX-6 is reported as 127 % of control-treated cells. Besides, the “level of gene expression, human aggrecan” value in the assay on human aggrecan (setting [1]) is 125 % of control-treated cells. The “effect of compounds on gene expression, human aggrecan” value in the assay with human aggrecan (setting [2]) is on record as “substantially increased”. Besides, the “level of gene expression, human SOX-5” value with human SOX-5 is recorded as 130 % of control-treated cells. For the same compound, in the assay with human COL2A1 (setting [1]), the “level of gene expression, human COL2A1” value is given as 247 % of control-treated cells. Moreover, in the assay with human COL2A1 (setting [2]), the “effect of compounds on gene expression, human COL2A1 (collagen II)” value is “substantially increased”. The “level of gene expression, Human IL-R antagonist” value in the assay on Human IL-R antagonist is on record as 113 % of control-treated cells.
